Key:
[1] = molecular target: CRBN (Homo sapiens, UniProt Q96SW2); assay: In-cell CRBN engagement NanoBRET; conditions: for EC50: EC50 CRBN engagement
[2] = molecular target: T1, TUB (Homo sapiens, UniProt P50607); assay: Western blot of TUB in HEK293T cells; assay type: cell-based; conditions: 100-10,000 nM
T1 construct: endogenous in cells; host or cells: HEK293T
Method: HEK293T or K562 cells were plated at a density of 1.6 x 10^5 cells/well in a 24-well plate coated with poly-D-lysine (Corning) in 1 mL media (DMEM + 10% FBS for HEK293T cells and RPMI + 10% FBS for K562 cells). After 16–18 hrs, cells were treated with either DMSO or the indicated concentration of small molecules to a 0.5% final concentration of DMSO. Plates were incubated at 37 °C, 5% CO2 for 24 hours for all cell lines except endogenously tagged PLK1–SD40 HEK293T cells, which were incubated for 2 hours. Cells were washed with PBS and then lysed for 30 minutes at 4 °C in radioimmunoprecipitation assay (RIPA; 25 mM Tris-HCl, 150 mM NaCl, 1% NP-40, 1% sodium deoxycholate, 0.1% SDS, pH ~ 7.6) buffer containing 1 mM phenylmethylsulfonyl fluoride (PMSF; Sigma Aldrich) and 1 x EDTA-free protease inhibitor cocktail (Roche). Lysates were centrifuged for 20 min @18,000 x g to isolate the soluble fractions. Protein concentration in clarified lysates was quantified using Pierce BCA Protein Assay Kit (Thermo Scientific) according to the manufacturer’s protocol. Clarified lysates were mixed with NuPAGE LDS Sample Buffer (Thermo NP0007) containing 10 mM DTT and boiled for 10 minutes. Gel electrophoresis was performed on boiled samples using polyacrylamide gels (Invitrogen NP0329BOX) with equal amounts of total protein in each lane. […]
values were calculated using a Welch's t-test. […]

[3] = tested on: SD40–BRD4; assay: Immunoblot, endogenous SD40-tagged BRD4 in K562 cells; assay type: cell-based, human; conditions: 24 hrs
Text: (§1) Next, we evaluated the installation of SD40 at endogenous genomic target genes in mammalian cells using twin prime editing (twin PE) ([54], [75]). We optimized prime editing parameters, including spacer position and prime editor construct ([30]), to insert SD40 at the C-terminus of PLK1 with 26% editing efficiency and 8.8% indel byproducts in HEK293T cells (Fig. 3E, fig. S13), enabling rapid isolation of a homozygous PLK1-SD40 cell line. PLK1 is an essential cell-state regulator ([76]), and complete knockdown for 24 hours is cytotoxic. […] We also used twin prime editing to install SD40 at the N-terminus of BRD4 yielding 7.7% knock-in of SD40 in K562 cells (Fig. 3E, S13) with 4.3% indel byproducts. […] For comparison, we also attempted scarless insertion of SD40 and FKBP12^F36V from the dTag system (324 base pairs) ([17]) at the N-terminus of BRD4 using Cas9 nuclease-directed HDR using two different sgRNAs and a double-strand donor DNA template. […]
(§2) HEK293T or K562 cells were plated at a density of 1.6 x 10^5 cells/well in a 24-well plate coated with poly-D-lysine (Corning) in 1 mL media (DMEM + 10% FBS for HEK293T cells and RPMI + 10% FBS for K562 cells). […] Protein concentration in clarified lysates was quantified using Pierce BCA Protein Assay Kit (Thermo Scientific) according to the manufacturer’s protocol. […]

[4] = molecular target: T2, DDB1•CRBN (Homo sapiens, UniProt Q96SW2); assay: Competitive fluorescence anisotropy (polarization) vs thalidomide-Cy5; assay type: binding; conditions: competition with thalidomide–Cy5; KD estimated from Ki
T2 construct: made in house
Method: Competitive fluorescence polarization experiments were performed according to previously reported methods ([65]). All experiments were performed in 25 mM HEPES, […], 1 mM TCEP, pH 7.4. A pre-complexed sample was prepared by incubating DDB1-CRBN (400 nM) with thalidomide–Cy5 conjugate (fig. S2A) (80 nM) at RT for 30 minutes with gentle shaking (220 rpm). […] Polarization values were measured on an Infinite M1000 Pro microplate reader (Tecan) following 1 hour of incubation at RT with gentle shaking. A total of three independent measurements were acquired and averaged per biological sample to generate the values shown in figure S2C. All mP values were normalized between 0 and 100 using the formula NormalizedmP=[(x−minimum)/[…]]∗100 , where ‘‘x’’ is the mP value of the sample and ‘‘minimum’’ and ‘‘maximum’’ are the minimum and maximum mP values, respectively, across all samples. KD values were estimated from computed Ki-values as previously described ([65]).

[5] = tested on: PLK1-SD40; assay: Immunoblot, endogenous SD40-tagged PLK1 in HEK293T cells; assay type: cell-based, human; conditions: 2 hours of treatment
Text: as §1, §2

Q: Which EC50 ([1]; HEK293T cells) does the source give for O=C1CCC(N2C(=O)c3ccc(N4CCOCC4)cc3C2=O)C(=O)N1 (stereo not drawn) [PT-179] here?
A: 2880 nM

Q: And the EC50 ([1]; HEK293T cells, No SD40 (fig. S16 protocol))?
A: 641 nM

Q: What about the EC50 ([1]; HEK293T cells, SD40–PRKRA low expression (single-copy lentiviral integration)) of the same compound?
A: 350 nM

Q: And the EC50 ([1]; HEK293T cells, SD40–PRKRA overexpression (plasmid transfection))?
A: 169 nM

Q: What about the EC50 ([1]; U2OS cells) of the same compound?
A: 979 nM

Q: What about the “lower apparent potency than pomalidomide” value ([1]; HEK293T and U2OS cells) of the same compound?
A: 7 fold

Q: What about the “increase in apparent affinity for CRBN” value ([1]; HEK293T cells overexpressing SD40–PRKRA) of the same compound?
A: 3.8 fold

Q: And the “increase in apparent affinity for CRBN” value ([1]; HEK293T cells stably expressing SD40–PRKRA)?
A: 1.8 fold

Q: What about the “TUB degradation (in words)” value [2] of the same compound?
A: does not degrade TUB

Q: What about the “SD40–BRD4 degradation (in words)” value [3] of the same compound?
A: robust degradation

Q: And the Kd [4]?
A: 587 nM

Q: And the “PLK1 knockdown (in words)” value [5]?
A: robust PLK1 knockdown

Source: publication PMC11203266, “Continuous evolution of compact protein degradation tags regulated by selective molecular glues” (Science (New York, N.Y.), 2024)
